From ChEMBL document CHEMBL2203038, “Isolation and synthesis of two antiproliferative calamenene-type sesquiterpenoids from Sterculia tavia from the Madagascar rain forest” (Bioorg Med Chem, 2012)

What follows are compounds tested on A2780 (assay: Antiproliferative activity against human A2780 cells after 2 days by alamar blue assay). Conditions: A2780, 48 h.
Type: functional, cell-based

SMILES	IC50
COc1cc2c(cc1C)C(C(C)C)CC=C2C (stereo unspecified)	> 50 µM
COc1cc2c(cc1C)C(C(C)C)CC(O)[C@]2(C)O (stereo partly specified)	> 50 µM
COc1cc2c(cc1C)C(C(C)C)CC(=O)[C@]2(C)O (stereo partly specified)	33.9 µM
COc1cc2c(cc1C)C(C(C)C)=CC(O)[C@]2(C)O (stereo partly specified)	22.1 µM
COc1cc2c(cc1C)C(O)(C(C)C)C(O)C(O)[C@]2(C)O (mixture of isomers)	35.5 µM
COc1cc2c(cc1C)C(C(C)C)=CC(=O)[C@]2(C)O [LACINILENE C METHYL ETHER]	4 µM
CC1=Cc2c(c(C)cc(O)c2C(C)C)C(=O)C1=O [MANSONONE G]	10.2 µM

The next lines start with the values.

IC50	SMILES
5.5 µM	COc1cc2c(cc1C)[C@](O)(C(C)C)C(=O)C(=O)[C@]2(C)O (stereo in doubt)
5.9 µM	COc1cc2c(cc1C)[C@@](O)(C(C)C)C(=O)C(=O)[C@@]2(C)O (stereo in doubt)
6.7 µM	COc1cc2c(cc1C)[C@](O)(C(C)C)C(=O)C(=O)[C@@]2(C)O (stereo in doubt)
6.3 µM	COc1cc2c(cc1C)[C@@](O)(C(C)C)C(=O)C(=O)[C@]2(C)O (stereo in doubt)
